tested on: H1299 cells; assay: Dynamic monitoring of cytoplasmic fructose-1,6-bisphosphate in H1299 cells expressing the optical probe; type: cell-based; settings: 0.5 mM 3-BrPA in HBSS, 30-min period, H1299 cells with cytoplasm-expressed probe
Protocol: • 1. The pCDNA3.1+-based fructose-1,6-bisphosphate optical probe plasmid was transfected into HEK293 cells by the transfection reagent Lipofectamine2000 (Invitrogen), and cultured in a cell incubator at 37° C., 5% CO2. Fluorescence detection was performed 24-36 h after the exogenous gene was fully expressed. • 2. After induction of expression, adherent HEK293 cells were washed three times with PBS and placed in HBSS solution for fluorescence microscopy and microplate reader assays, respectively.
After H1299 cells were transfected with the cytoplasm-expressed optical probe plasmid for 36 h, they were washed with PBS and placed in HBSS solutions containing 0 mM 3-BrPA and 0.5 mM 3-BrPA, and the changes in the ratio of the fluorescence intensity at 528 nm emission and at 420 nm excitation and the fluorescence intensity at 528 nm emission at 485 nm excitation were detected over a 30-min period.

Compound | ratio of 420/485, maximum relative to the initial value
O=C(O)C(=O)CBr [3-BrPA] | 3.7 times the initial value

tested on: not listed separately; assay: Screening of linker-mutated cpYFP optical probes for response to fructose-1,6-bisphosphate; type: biochemical; settings: linker mutants of CggR(88-340)-cpYFP; 485 nm/420 nm signal ratio of sample relative to control
Source text: The invention also provides use of fructose-1,6-bisphosphate optical probes in real-time localization, quantitative detection and high-throughput compound screening of fructose-1,6-bisphosphate. In one aspect, the fructose-1,6-bisphosphate optical probe, preferably linked with signal peptides at different parts of the cell, is transferred into cells for real-time localization of fructose-1,6-bisphosphate by detecting the strength of fluorescence signals in cells, corresponding quantitative detection of fructose-1,6-bisphosphate is performed by a fructose-1,6-bisphosphate standard titration curve. […] In the embodiment involving cpYFP, the ratio is the ratio of the ratio of the sample's 485-nanometer fluorescence signal to the 420-nanometer fluorescence signal to the corresponding ratio of the control. The fructose-1,6-bisphosphate standard titration curve of the present invention is drawn based on the fluorescence signal of the fructose-1,6-bisphosphate optical probe under different concentrations of fructose-1,6-bisphosphate. The fructose-1,6-bisphosphate optical probe described herein is directly transferred into cells, which is more accurate without time-consuming sample processing process during the real-time localization and quantitative detection of fructose-1,6-bisphosphate. When the fructose-1,6-bisphosphate optical probe of the present invention is used for high-throughput compound screening, different compounds are added to the cell culture fluid, and the change of fructose-1,6-bisphosphate content is measured, so as to screen out compounds that affect the change of fructose-1,6-bisphosphate content.
• 1. An expression vector (such as a pCDF-based fructose-1,6-bisphosphate optical probe expression vector) was transform into BL21 (DE3) cells, and invert-cultured overnight, and clones were picked from the plate into a 250 ml Erlenmeyer flask, and placed in a 37° C. shaker, cultured at 220 rpm to OD=0.4-0.8, add 1/1000 (v/v) IPTG (1 M), and induced expression at 18° C. for 24-36 h. • 2. After induction, cells were harvested by centrifugation at 4000 rpm for 30 min, resuspended in 50 mM phosphate buffer and disrupted ultrasonically until the broth were clear, centrifuged at 9600 rpm at 4° C. for 20 min. • 3. The centrifuged supernatant was purified by a self-packed nickel-column affinity chromatography column to obtain the protein, and the protein after nickel-column affinity chromatography was then passed through a self-packed desalting column to obtain the protein dissolved in 100 mM HEPES buffer (pH 7.4). • 4. After the purified protein was identified by SDS-PAGE, the probe was diluted with assay buffer (100 mM HEPES, 100 mM NaCl, pH 7.4) into a protein solution with a final concentration of 0.2-5 μM. Fructose-1,6-bisphosphate was prepared as a stock solution at a final concentration of 50 mM with assay buffer (100 mM HEPES, 100 mM NaCl, pH 7.4). • 5. 100 μl of 1 μM protein solution was taken and incubated at 37° C. for 10 min, […], and measured the fluorescence intensity of the protein at 528 nm after excitation at 420 nm and fluorescence intensity of the protein at 528 nm after excitation at 485 nm. The fluorescence excitation and emission measurement of the samples were completed by a multifunctional fluorescence microplate reader. • 6.100 μl of 1 μM protein solution was taken, incubated at 37° C. for 10 min, tryptophan was added, and measured the absorption and fluorescence spectra of the protein. The determination of the absorption spectrum and fluorescence spectrum of the sample was completed by a spectrophotometer and a fluorescence spectrophotometer.
Optical probe mutants were constructed based on PCDF-CggR(88-340)-176/177-CPYFP, PCDF-CggR(88-340)-176/178-CPYFP, PCDF-CggR(88-340)-177/181-CPYFP, PCDF-CggR(88-340)-179/180-CPYFP, PCDF-CggR(88-340)-182/184-CPYFP, PCDF-CggR(88-340)-182/185-CPYFP, PCDF-CggR(88-340)-203/206-CPYFP, PCDF-CggR(88-340)-203/207-CPYFP and PCDF-CggR-203/208(88-340)-CPYFP. […]

Compound | Standardized fluorescence signal ratio
Serial number 8: cpYFP at 176/177 of CggR(88-340); CggR: G177M/L178N/Q185T; SEQ ID NO: 12 | 4
Serial number 7: cpYFP at 176/177 of CggR(88-340); CggR: G177M/L178N/Q185A; SEQ ID NO: 11 | 4
Serial number 9: cpYFP at 176/177 of CggR(88-340); CggR: G177M/L178N/Q185D; SEQ ID NO: 13 | 4.17
Serial number 20: cpYFP at 182/184 of CggR(88-340); CggR: N184V/Q185P/D181E/V182G CPYFP: Y1V; SEQ ID NO: 16 | 9.6
Serial number 17: cpYFP at 182/184 of CggR(88-340); CggR: N184V/Q185P/D181E/V182G/G177L CPYFP: Y1I; SEQ ID NO: 15 | 12
Serial number 16: cpYFP at 182/184 of CggR(88-340); CggR: N184V/Q185P/D181E/V182G/G177L CPYFP: Y1V; SEQ ID NO: 14 | 11.6
Serial number 4: cpYFP at 176/177 of CggR(88-340); CggR: G177M/L178N; SEQ ID NO: 10 | 4.54

Reference: patent US20260194517A1, “FRUCTOSE-1,6-DIPHOSPHATE OPTICAL PROBE, AND PREPARATION METHOD THEREFOR AND USE THEREOF” (EAST CHINA UNIVERSITY OF SCIENCE AND TECHNOLOGY, priority 2022, published 2026)
